The target of the experiment is T1, human kidney renin (Homo sapiens, UniProt P00797).
T1 construct: Human renin was prepared from human kidney; from tissue; host or cells: human kidney
T1 sequence (P00797 67-406): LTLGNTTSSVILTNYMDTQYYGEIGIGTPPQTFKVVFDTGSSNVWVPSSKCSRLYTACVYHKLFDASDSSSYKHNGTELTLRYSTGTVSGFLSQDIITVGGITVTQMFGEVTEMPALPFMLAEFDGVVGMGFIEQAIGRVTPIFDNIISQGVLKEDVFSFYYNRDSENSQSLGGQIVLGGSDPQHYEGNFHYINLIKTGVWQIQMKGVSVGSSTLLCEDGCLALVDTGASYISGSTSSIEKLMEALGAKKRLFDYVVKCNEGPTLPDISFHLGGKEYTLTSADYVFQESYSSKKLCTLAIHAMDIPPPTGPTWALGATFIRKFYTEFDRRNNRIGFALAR
The experiment can be described thus: Radioimmunoassay Screen for Renin Inhibitors (in vitro angiotensin I generation, quantitated by radioimmunoassay). Type of experiment: biochemical. The settings on record: purified human plasma angiotensinogen, pH 6.0, one hour at 37° C., read-out: Renin Inhibiton IC50. How it is done: The in vitro method for the screening of anti-renin compounds involves, first, angiotensin I generation, and second, the quantitation of the angiotensin I produced by radioimmunoassay.
The incubation medium consisted of 20 μl of purified human plasma angiotensinogen (1); 10 μl of human kidney renin (2); 5 μl of phenylmethylsulfonyl fluoride; 10 μl of disodium EDTA (10 mM); 10 μl of antirenin compound (5×10^-3, 5×10^-4, 5×10^-5) in dimethylformamide, or ethanol and a suitable amount of maleate buffer (77 mM, pH 6.0) to make a final volume of 500 μl. The reaction mixture was incubated for one hour at 37° C. and the enzymatic reaction was stopped by placing the tube in ice-cold water. The angiotensin I generated during the incubation was measured by a radioimmunoassay plasma renin activity kit (Clinical Assays, Inc.).
The incubation medium consisted of either 100 μl aliquots of the above reaction mixture or a standard amount of angiotensin I; 1000 μl of phosphate buffer (100 mM, pH 7.6) and 100 μl of (^125 I)angiotensinin a gamma-coat, tube. After three hours of incubation at room temperature, the tubes were decanted, and the radioactivity of each tube was determined in a gamma counter. Duplicate determinations were performed for each incubation. The results were expressed in ng of angiotensin I generated per ml of generation medium per hour of incubation (ng/AI/ml/hr).
(1) The human plasma angiotensinogen derived from the blood of a person receiving oral contraceptive pills was purified by chromatography on a pepstatinaminohexyl-agarose column.
(2) Human renin was prepared from human kidney.

A word on the IC50: it is the midpoint of a concentration-inhibition curve. As to `CC(C)C[C@H](NC(=O)[C@@H](CC(=O)NCCc1cccn1C)Cc1cccc2ccccc12)C(=O)N[C@@H](CC(C)C)[C@@H](O)c1nccs1`, the IC50 was found to be 0.033 µM. Regarding `CC(C)(C)NC(=O)C[C@@H](Cc1cccc2ccccc12)C(=O)N[C@@H](Cc1cnc[nH]1)C(=O)N[C@@H](CC1CCCCC1)[C@@H](O)c1nccs1`, the IC50 turned out to be 7.1 µM. The value for `O=C(N[C@@H](Cc1cnc[nH]1)C(=O)N[C@@H](CC1CCCCC1)[C@@H](O)c1nccs1)[C@@H](CC(=O)N1CCOCC1)Cc1cccc2ccccc12` was 0.035 µM; that for `CC(C)C[C@H](NC(=O)[C@@H](CC(=O)NCCc1ccccn1)Cc1cccc2ccccc12)C(=O)N[C@@H](CC(C)C)[C@@H](O)c1nccs1` was 0.11 µM; that for `CC(C)C[C@H](NC(=O)[C@H](Cc1ccccc1)OC(=O)N1CCC(=O)CC1)C(=O)N[C@@H](CC1CCCCC1)[C@@H](O)c1ccco1` was 0.058 µM. The same measure for `CC(C)C[C@H](NC(=O)[C@@H](CC(=O)N1CCOCC1)Cc1ccccc1)C(=O)N[C@@H](CC1CCCCC1)[C@@H](O)c1nccs1`: 80 µM. The same measure for `CC(C)C[C@H](NC(=O)[C@@H](CC(=O)NCc1cccnc1)Cc1cccc2ccccc12)C(=O)N[C@@H](CC(C)C)[C@@H](O)c1nccs1`: 0.17 µM. Turning to `CC(C)C[C@H](NC(=O)[C@@H](CC(=O)NCCCN1CCCC1=O)Cc1cccc2ccccc12)C(=O)N[C@@H](CC(C)C)[C@@H](O)c1nccs1`, the IC50 stood at 0.074 µM. The value for `CC(C)C[C@H](NC(=O)[C@@H](CC(=O)OC(C)(C)C)Cc1cccc2ccccc12)C(=O)N[C@@H](CC(C)C)[C@@H](O)c1nccs1` was 0.55 µM; that for `O=C(N[C@@H](Cc1cnc[nH]1)C(=O)N[C@@H](CC1CCCCC1)[C@@H](O)c1ccco1)[C@@H](CC(=O)N1CCOCC1)Cc1cccc2ccccc12` was 0.0049 µM. On to `CC(C)C[C@H](NC(=O)[C@H](Cc1c[nH]cn1)NC(=O)[C@@H](CC(=O)NC(C)(C)C)Cc1ccccc1)[C@@H](O)c1nccs1`, for which the IC50 stood at 65 µM.

As for `CC(C)C[C@H](NC(=O)[C@@H](CC(=O)OC(C)(C)C)Cc1cccc2ccccc12)C(=O)N[C@@H](CC1CCCCC1)[C@@H](O)c1ccccn1`, the IC50 was 0.16 µM. Regarding `CC(=O)N1CCN(C(=O)O[C@@H](Cc2ccccc2)C(=O)N[C@@H](CC(C)C)C(=O)N[C@@H](CC2CCCCC2)[C@@H](O)c2ccco2)CC1`, the IC50 is 0.042 µM.

Regarding `CC(C)C[C@H](NC(=O)[C@H](Cc1ccccc1)OC(=O)N1CCC2(CC1)OCCO2)C(=O)N[C@@H](CC1CCCCC1)[C@@H](O)c1ccco1`, the IC50 stood at 0.21 µM.

`CC(C)C[C@H](NC(=O)[C@@H](CC(=O)NCCOc1ccccn1)Cc1cccc2ccccc12)C(=O)N[C@@H](CC(C)C)[C@@H](O)c1nccs1`: the IC50 amounted to 0.044 µM. With `CC(C)C[C@H](NC(=O)[C@H](Cc1ccccc1)OC(=O)N1CCOCC1)C(=O)N[C@@H](CC1CCCCC1)[C@@H](O)c1nccs1`, the IC50 is 0.011 µM.

Consider `COc1cc(C[C@H](CC(=O)O)C(=O)N[C@@H](CC(C)C)C(=O)N[C@@H](CC(C)C)[C@@H](O)c2nccs2)cc(OC)c1OC`, for which the IC50 was found to be 6 µM. The value for `COc1cc(C[C@H](CC(=O)N2CCOCC2)C(=O)N[C@@H](Cc2c[nH]cn2)C(=O)N[C@@H](CC(C)C)[C@@H](O)c2nccs2)cc(OC)c1OC` was 2.8 µM; that for `CC(C)C[C@H](NC(=O)[C@@H](CC(=O)OC(C)(C)C)Cc1cccs1)C(=O)N[C@@H](CC(C)C)[C@@H](O)c1nccs1` was 100 µM; that for `CC(C)C[C@H](NC(=O)[C@@H](CC(=O)NCCCn1ccnc1)Cc1cccc2ccccc12)C(=O)N[C@@H](CC(C)C)[C@@H](O)c1nccs1` was 0.21 µM. The value for `CC(C)C[C@H](NC(=O)[C@@H](CC(=O)NCCCN1CCCC1=O)Cc1ccccc1)C(=O)N[C@@H](CC1CCCCC1)[C@@H](O)c1ccccn1` was 0.13 µM; that for `O=C(N[C@@H](Cc1cnc[nH]1)C(=O)N[C@@H](CC1CCCCC1)[C@@H](O)c1ccccn1)[C@@H](CC(=O)N1CCOCC1)Cc1cccc2ccccc12` was 0.26 µM. In the case of `O=C(N[C@@H](Cc1c[nH]cn1)C(=O)N[C@@H](CC1CCCCC1)[C@@H](O)c1nccs1)[C@@H](CC(=O)N1CCOCC1)Cc1ccccc1`, the IC50 was found to be 15 µM. `CC(C)C[C@H](NC(=O)[C@H](CC1CCCCC1)OC(=O)N1CCOCC1)C(=O)N[C@@H](CC1CCCCC1)[C@@H](O)c1ccco1`: the IC50 stood at 0.18 µM. The same measure for `CC(C)C[C@H](NC(=O)[C@@H](CC(=O)O)Cc1cccc2ccccc12)C(=O)N[C@@H](CC(C)C)[C@@H](O)c1nccs1`: 0.55 µM; for `O=C(N[C@@H](Cc1cnc[nH]1)C(=O)N[C@@H](CC1CCCCC1)[C@@H](O)c1cccs1)[C@@H](CC(=O)N1CCOCC1)Cc1cccc2ccccc12`: 0.27 µM; for `Cn1cccc1CCNC(=O)C[C@@H](Cc1cccc2ccccc12)C(=O)N[C@@H](Cc1cnc[nH]1)C(=O)N[C@@H](CC1CCCCC1)[C@@H](O)c1nccs1`: 0.34 µM. The value for `CC(C)C[C@H](NC(=O)[C@@H](CC(=O)N1CCN(C)CC1)Cc1cccc2ccccc12)C(=O)N[C@@H](CC(C)C)[C@@H](O)c1nccs1` was 0.44 µM. The same measure for `CC(C)C[C@H](NC(=O)[C@@H](CC(=O)NC(C)(C)C)Cc1ccccc1)C(=O)N[C@@H](CC(C)C)[C@@H](O)c1nccs1`: 67 µM. Turning to `CC(C)C[C@H](NC(=O)[C@@H](CC(=O)NCc1ccccn1)Cc1cccc2ccccc12)C(=O)N[C@@H](CC(C)C)[C@@H](O)c1nccs1`, the IC50 came to 0.12 µM.

In the case of `CC(C)(C)OC(=O)C[C@@H](Cc1cccc2ccccc12)C(=O)N[C@@H](Cc1cnc[nH]1)C(=O)N[C@@H](CC1CCCCC1)[C@@H](O)c1ccccn1`, the IC50 was determined as 4.8 µM. The value for `CC(C)C[C@H](NC(=O)[C@@H](CC(=O)NCCCCn1ccnc1)Cc1cccc2ccccc12)C(=O)N[C@@H](CC(C)C)[C@@H](O)c1nccs1` was 0.093 µM; that for `CC(C)C[C@H](NC(=O)[C@@H](CC(=O)NCCN1CCCCC1)Cc1cccc2ccccc12)C(=O)N[C@@H](CC(C)C)[C@@H](O)c1nccs1` was 0.65 µM.

The values are drawn from patent publication US5104869A, “Renin inhibitors” (American Cyanamid Company, priority 1990, dated 1992).
